Target: T1, human Itk kinase (Homo sapiens, UniProt Q08881)
T1 sequence (Q08881 1-620): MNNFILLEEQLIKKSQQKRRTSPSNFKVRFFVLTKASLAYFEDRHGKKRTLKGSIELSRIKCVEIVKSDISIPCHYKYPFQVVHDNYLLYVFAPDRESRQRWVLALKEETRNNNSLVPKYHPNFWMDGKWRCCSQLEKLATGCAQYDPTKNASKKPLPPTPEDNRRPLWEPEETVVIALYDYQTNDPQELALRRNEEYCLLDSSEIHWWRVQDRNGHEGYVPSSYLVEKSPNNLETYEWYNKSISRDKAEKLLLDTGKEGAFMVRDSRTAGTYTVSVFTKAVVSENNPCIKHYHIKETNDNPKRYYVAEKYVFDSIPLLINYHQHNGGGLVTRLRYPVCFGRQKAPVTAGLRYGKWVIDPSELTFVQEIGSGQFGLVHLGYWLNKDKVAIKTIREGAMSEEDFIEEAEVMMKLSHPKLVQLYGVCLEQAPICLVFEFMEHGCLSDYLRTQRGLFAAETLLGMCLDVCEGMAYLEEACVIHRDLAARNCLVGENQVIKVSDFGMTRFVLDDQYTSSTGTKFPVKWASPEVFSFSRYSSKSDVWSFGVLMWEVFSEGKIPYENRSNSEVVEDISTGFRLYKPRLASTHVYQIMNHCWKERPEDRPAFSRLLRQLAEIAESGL
Assay: Itk inhibition assay (radioactivity-based or spectrophotometric coupled enzyme assay)
Format: biochemical
Method: The compounds of the present invention can be evaluated as inhibitors of human Itk kinase using either a radioactivity-based or spectrophotometric assay. In general, compounds of the invention, including the compound in Table 1, are effective for the inhibition of ITK. Specifically, compound I.1 has a Ki value of <2 uM.
Assays are carried out in a mixture of 100 mM HEPES (pH 7.5), 10 mM MgCl2, 25 mM NaCl, 0.01% BSA and 1 mM DTT. Final substrate concentrations are 15 μM [γ-^33P]ATP (400 μCi ^33P ATP/μmol ATP, Amersham Pharmacia Biotech/Sigma Chemicals) and 2 μM peptide (SAM68 protein Δ332-443). Assays are carried out at 25° C. in the presence of 30 nM Itk. An assay stock buffer solution is prepared containing all of the reagents listed above, with the exception of ATP and the test compound of interest. […]
IC50 data are calculated from non-linear regression analysis of the initial rate data using the Prism software package (GraphPad Prism version 3.0cx for Macintosh, GraphPad Software, San Diego Calif., USA). […]
Ki(app) data are calculated from non-linear regression analysis of the initial rate data using the Prism software package (GraphPad Prism version 3.0cx for Macintosh, GraphPad Software, San Diego Calif., USA). […]

- Ki: < 2000 nM
Structure (SMILES): O=c1[nH]cc(-c2ccccc2)cc1-c1cc2ccccc2[nH]1 [Compound I.1, 3-(1H-indol-2-yl)-5-phenylpyridin-2(1H)-one]

Source: patent US7691885B2, “Pyridones useful as inhibitors of kinases” (Vertex Pharmaceuticals Incorporated, priority 2005, dated 2010)
